Measured values from US6143910A, “Methods for preparation and use of 1α, 24(S) -dihydroxy vitamin D2” (priority 1998, dated 2000).
Where two headings read alike, the source gives them in different places. Each block holds one molecule with its values, some of them ahead of it.

Tests used:
[1] = system: 1,25-(OH)2 D3 receptor site; settings: Ishizuka et al., Steroids 1981, 1982; cited from earlier work
[2] = human, in vivo; cited from earlier work
[3] = Blood metabolite levels in osteoporotic women administered 1α-OH-D2; format: in vivo, human; settings: one day after a single 2 μg dose of 1α-OH-D2
Description: An increase in the production of 1α,24(S)-(OH)2 D2 relative to 1α,25-(OH)2 D2 has also been observed by the present inventors in human females who received 1α-OH-D2 as part of an investigation of that drug for the treatment of osteoporosis. Following either a single dose of 2 μg of 1α-OH-D2 or daily doses of 8 μg/day for one week, blood was collected and analyzed for the metabolites 1α,24(S)-(OH)2 D2 and 1α,25-(OH)2 D2. Lipid was extracted from the blood, and the metabolites were purified by HPLC using standard methods and quantified with the radioreceptor assay produced by Incstar (Stillwater, Minn.). One day after a single 2 μg dose, the level of 1α,24(S)-(OH)2 D2 was undetectable with the 1α,25-(OH)2 D2 level being approximately 11 pg/ml. In contrast, one day following the last dose of 8 μg, the level of 1α,24(S)-(OH)2 D2 averaged 9 pg/ml with the 1α,25-(OH)2 D2 level averaging 30 pg/ml.

[4] = format: in vivo, rat
Description: Vitamin D2 or 24-OH-D2 was administered (either oral or intraperitoneal supplementation) to vitamin D-deficient rats. Lipid extracts of the plasma were prepared and the metabolites purified by the method of Horst et al. (Horst, R. L., Koszewski, N. J. and Reinhardt, T. A., Biochem., 29:578-82 (1990)) described below for synthesyzing standard biological 1α,24-(OH)2 D2.
Standard biological 1α,24-(OH)2 D2 was synthesized in vitro from 24-OH-D2 by incubating 10 μg of 24-OH-D2 in flask containing 5 ml of 20% kidney homogenates made from vitamin D-deficient chicks. The product of this reaction was isolated by HPLC and identified by mass spectrometry.

Compound: C=C1/C(=C\C=C2/CCC[C@]3(C)[C@@H]([C@H](C)CC[C@@H](O)C(C)C)CC[C@@H]23)C[C@@H](O)C[C@@H]1O [1α,24(R)-(OH)2 D3, 1α,24(R)-dihydroxyvitamin D3]
- Binding of the 1,25-(OH)2 D3 receptor site relative to 1,25-(OH)2 D3 [1]: more tightly than does 1,25-(OH)2 D3 itself

Compound: C=C1/C(=C\C=C2/CCC[C@]3(C)[C@@H]([C@H](C)CCCC(C)C)CC[C@@H]23)C[C@@H](O)C[C@@H]1O [1α-(OH)D3, 1α-hydroxy vitamin D3]
- Safety of dosage levels of 2.0 μg/day or greater [2]: not safely obtained

- Blood level of metabolite 1α,24(S)-(OH)2 D2 [3]: undetectable
Compound: C=C1/C(=C\C=C2/CCC[C@]3(C)[C@@H]([C@H](C)/C=C/[C@H](C)C(C)C)CC[C@@H]23)C[C@@H](O)C[C@@H]1O [1α-OH-D2, 1α-hydroxy vitamin D2]

Compound: C=C1CC[C@H](O)C/C1=C/C=C1\CCC[C@]2(C)[C@@H]([C@H](C)/C=C/C(C)(O)C(C)C)CC[C@@H]12 (stereo partly drawn) [24-OH-D2, 24-hydroxyvitamin D2]
- 1α,24-(OH)2 D2 metabolite in plasma lipid extracts ([4]; rat, in vivo): co-migrated on HPLC with the standard 1α,24-(OH)2 D2

Compound: C=C1CC[C@H](O)C/C1=C/C=C1\CCC[C@]2(C)[C@@H]([C@H](C)/C=C/[C@H](C)C(C)C)CC[C@@H]12 [vitamin D2]
- 1α,24-(OH)2 D2 metabolite in plasma lipid extracts ([4]; vitamin D-deficient rats, oral or intraperitoneal, HPLC): co-migrated on HPLC with the standard 1α,24-(OH)2 D2

Compound: C=C1CC[C@H](O)C/C1=C/C=C1\CCC[C@]2(C)[C@@H]([C@H](C)CCCC(C)C)CC[C@@H]12 [vitamin D3]
- 24-OH-D3 in plasma ([4]; comparable vitamin D-deficient rats): no detectable 24-OH-D3
